The supplement of paper PMC11923942

Experiments:
[1] = collision cross section (N2, base ion); higher = larger ion cross section
Procedure: (§1)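 Standards of hydrophobic organic contaminants were analysed by GC-APCI (positive mode, dry or wet source conditions) coupled to cyclic ion mobility-QTOF MS. CCS was measured for the base ion (sometimes a fragment ion) in N2 drift gas (one-pass mode, calibrated with a Waters 22-compound mix).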

[2] = GC retention time (DB-5MS, GC-APCI); higher = later elution
Procedure: as §1, with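 “mix). 5 mL/min).” for “mix).”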

SMILES | collision cross section [1] | GC retention time [2]
c1cc2cccc3c4cccc5cccc(c(c1)c23)c54 [Perylene] (APCI source condition: Dry, base ion: M+.) | 143.02 Å² | 25 min
Brc1c(Br)c(Br)c(Br)c(Br)c1Br [Hexabromobenzene] (APCI source condition: Dry, base ion: M+.) | 135.29 Å² | 21.8 min
c1cc2ccc3cccc4ccc(c1)c2c34 [Pyrene] (APCI source condition: Dry, base ion: M+.) | 137.65 Å² | 18.9 min
CCCCCCCCCCCCCCC(F)(F)C(F)(F)C(F)(F)C(F)(F)C(F)(F)C(F)(F)C(F)(F)C(F)(F)C(F)(F)C(F)(F)C(F)(F)C(F)(F)F [1-(Perfluorododecyl)tetradecane] (APCI source condition: Dry, base ion: [M-H]+) | 250.16 Å² | 16.7 min
Clc1ccc(C(c2ccc(Cl)cc2)C(Cl)(Cl)Cl)cc1 [4,4'-DDT] (APCI source condition: Dry, base ion: [M-CCl3]+) | 140.31 Å² | 20.8 min
Clc1cc(Cl)c(-c2c(Cl)ccc(Cl)c2Cl)cc1Cl [PCB 149] (APCI source condition: Dry, base ion: M+.) | 158.29 Å² | 19.8 min
Clc1cc(Cl)c(-c2cc(Cl)c(Cl)c(Cl)c2Cl)cc1Cl [PCB 180] (APCI source condition: Dry, base ion: M+.) | 166.55 Å² | 22 min
ClC1CCCC(Br)(Br)C(Cl)(C2=CCCC2)C(Cl)(Cl)C1(Cl)Cl (stereo not drawn) [Hexachlorocyclopentenyl-dibromocyclooctane] (APCI source condition: Dry, base ion: [M-CH4Cl2Br]+) | 152.06 Å² | 24.4 min
C=CCOc1c(Br)cc(Br)cc1Br [1,3,5-Tribromo-2-prop-2-enoxybenzene] (APCI source condition: Dry, base ion: [M-Br]+) | 136.27 Å² | 15.2 min
ClC1=C(Cl)[C@]2(Cl)[C@H]3[C@H]([C@H]4C=C[C@@H]3C4)[C@@]1(Cl)C2(Cl)Cl [Isodrin] (APCI source condition: Dry, base ion: M+.) | 150.98 Å² | 18 min
Brc1ccc(Oc2ccc(Br)c(Br)c2)cc1Br [PBDE 77] (APCI source condition: Dry, base ion: M+.) | 164.62 Å² | 23 min
Clc1ccc(Cl)c(-c2ccccc2Cl)c1 [PCB 18] (APCI source condition: Dry, base ion: M+.) | 140.01 Å² | 15.4 min
Clc1cc(Cl)c(-c2c(Cl)c(Cl)cc(Cl)c2Cl)cc1Cl [PCB 187] (APCI source condition: Dry, base ion: M+.) | 165.54 Å² | 21.1 min
Brc1cc(Oc2c(Br)cc(Br)c(Br)c2Br)cc(Br)c1Br [PBDE 191] (APCI source condition: Dry, base ion: M+.) | 187.91 Å² | 29 min
Clc1cc(Cl)c(Cl)c(Cl)c1Cl [Pentachlorobenzene] (APCI source condition: Dry, base ion: M+.) | 135.24 Å² | 12.4 min
ClC1C(Cl)C(Cl)C(Cl)C(Cl)C1Cl (stereo not drawn) [γ-Hexachlorocyclohexane] (APCI source condition: Dry, base ion: [M-H2Cl3]+) | 137.38 Å² | 15.2 min
c1ccc2c(c1)sc1ccccc12 [Dibenzothiophene] (APCI source condition: Dry, base ion: M+.) | 137.55 Å² | 15.2 min
c1ccc2cc3ccccc3cc2c1 [Anthracene] (APCI source condition: Dry, base ion: M+.) | 138 Å² | 15.7 min
Brc1cc(Br)c(Oc2cc(Br)c(Br)cc2Br)c(Br)c1 [PBDE 154] (APCI source condition: Dry, base ion: M+.) | 178.18 Å² | 25.4 min
Brc1cc(Br)c(Oc2c(Br)cc(Br)c(Br)c2Br)cc1Br [PBDE 183] (APCI source condition: Dry, base ion: M+.) | 184.97 Å² | 28.2 min
ClC(Cl)=C(c1ccc(Cl)cc1)c1ccc(Cl)cc1 [4,4'-DDE] (APCI source condition: Dry, base ion: M+.) | 159.06 Å² | 19.3 min
Clc1ccc(-c2ccc(Cl)c(Cl)c2Cl)c(Cl)c1Cl [PCB 128] (APCI source condition: Dry, base ion: M+.) | 158.12 Å² | 21.3 min

SMILES | collision cross section [1] | GC retention time [2]
Clc1ccc(-c2cc(Cl)c(Cl)cc2Cl)cc1Cl [PCB 118] (APCI source condition: Dry, base ion: M+.) | 156.06 Å² | 19.9 min
c1ccc2c(c1)ccc1cc3c(ccc4ccccc43)cc12 [Dibenzo(a,h)anthracene] (APCI source condition: Dry, base ion: M+.) | 154.91 Å² | 27.2 min
CCCCC(CC)COC(=O)c1c(Br)c(Br)c(Br)c(Br)c1C(=O)OCC(CC)CCCC (stereo not drawn) [Bis(2-ethylhexyl) tetrabromophthalate] (APCI source condition: Dry, base ion: C8HBr4O3+) | 141.58 Å² | 30.1 min
Brc1cccc(Oc2ccc(Br)c(Br)c2)c1 [PBDE 35] (APCI source condition: Dry, base ion: M+.) | 154.86 Å² | 20.3 min
Clc1ccc(-c2cc(Cl)c(Cl)c(Cl)c2Cl)c(Cl)c1Cl [PCB 170] (APCI source condition: Dry, base ion: M+.) | 165.18 Å² | 22.5 min
C=C(Br)COc1c(Br)cc(Br)cc1Br [2-Bromoallyl 2,4,6-tribromophenyl ether] (APCI source condition: Dry, base ion: [M-Br]+) | 143.35 Å² | 18.2 min
c1ccc2c(c1)c1cccc3ccc4cccc2c4c31 [Benzo(e)pyrene] (APCI source condition: Dry, base ion: M+.) | 142.88 Å² | 24.7 min
Clc1ccc(-c2c(Cl)ccc(Cl)c2Cl)cc1Cl [PCB 110] (APCI source condition: Dry, base ion: M+.) | 152.9 Å² | 19.4 min
ClC1=C(Cl)C2(Cl)[C@H]3[C@@H]4O[C@@H]4[C@H](Cl)[C@H]3C1(Cl)C2(Cl)Cl (stereo partly drawn) [Heptachlor-exo-epoxide] (APCI source condition: Dry, base ion: [M-H]+) | 151.86 Å² | 18.2 min
c1ccc2cc3c(ccc4ccccc43)cc2c1 [Benzo(a)anthracene] (APCI source condition: Dry, base ion: M+.) | 140.47 Å² | 21.8 min
Clc1ccc(C(c2ccccc2Cl)C(Cl)(Cl)Cl)cc1 (stereo not drawn) [2,4'-DDT] (APCI source condition: Dry, base ion: [M-CCl3]+) | 140.36 Å² | 20.2 min
Brc1ccc(Oc2ccc(Br)cc2Br)cc1 [PBDE 28] (APCI source condition: Dry, base ion: M+.) | 154.31 Å² | 20.1 min
CC(CCl)OP(=O)(OC(C)CCl)OC(C)CCl (stereo not drawn) [Tris(1-chloro-2-propyl)phosphate] (APCI source condition: Wet, base ion: [M-C3H4Cl]+) | 160.76 Å² | 15.4 min
Clc1ccc(-c2ccccc2Cl)cc1 [PCB 7] (APCI source condition: Dry, base ion: M+.) | 137.98 Å² | 14.6 min
Brc1cc(Br)c(Oc2c(Br)cc(Br)c(Br)c2Br)c(Br)c1 [PBDE 184] (APCI source condition: Dry, base ion: M+.) | 181.4 Å² | 27.8 min
c1ccc2c(c1)-c1ccc3ccc4cccc5cc-2c1c3c45 [Indeno(1,2,3-cd)pyrene] (APCI source condition: Dry, base ion: M+.) | 148.24 Å² | 27.7 min
Clc1ccccc1-c1ccccc1Cl [PCB 4] (APCI source condition: Dry, base ion: M+.) | 137.64 Å² | 13.6 min
Clc1cccc(-c2cccc(Cl)c2Cl)c1Cl [PCB 40] (APCI source condition: Dry, base ion: M+.) | 144.96 Å² | 17.9 min
O=S1OC[C@@H]2[C@H](CO1)[C@@]1(Cl)C(Cl)=C(Cl)[C@]2(Cl)C1(Cl)Cl (stereo partly drawn) [α-Endosulfan] (APCI source condition: Wet, base ion: [M+H]+) | 163.16 Å² | 18.9 min
Clc1ccc(Cl)c(-c2cc(Cl)ccc2Cl)c1 [PCB 52] (APCI source condition: Dry, base ion: M+.) | 149.21 Å² | 17.1 min
Brc1ccc(Oc2ccc(Br)cc2Br)c(Br)c1 [PBDE 47] (APCI source condition: Dry, base ion: M+.) | 162.71 Å² | 22.2 min
ClC(Cl)=C(c1ccc(Cl)cc1)c1ccccc1Cl [2,4'-DDE] (APCI source condition: Dry, base ion: M+.) | 154.54 Å² | 18.7 min
